From patent US8889661B2 (Teva Pharmaceutical Industries, Ltd., priority 2010, dated 2014)

Assays:
(NZBxNZW)F1 mice [1] = settings: for proteinuria (PU): Week 12 observation, vs vehicle (water), laquinimod 25 mg/kg p.o. daily, CTX once weekly i.p., MW U test; for immune complex deposition (ICD) in kidney: end of experiment (12 weeks), vs vehicle, scoring and image analysis
From the text: Systemic Lupus Erythematosus (SLE) is a disorder of generalized autoimmunity characterized by defective T cell-mediated responses and the formation of a variety of antibodies reactive to self or altered self-antigens. SLE is mainly characterized by the presence of anti-DNA antibodies. Some of these auto-antibodies combine with the corresponding auto-antigens, forming immune complexes, either in the circulating blood or directly in tissues, resulting in severe damage. Glomerulonephritis induced by immune complexes is in fact the major cause of death in patients with SLE. (NZBxNZW)F1 are lupus-prone mice that develop an SLE-like disease spontaneously including anti-dsDNA antibodies (Abs), proteinuria and Immune Complex Deposits (ICD). The (NZBxNZW)F1 (NZB/W) murine model is the hallmark of spontaneous SLE.
MTX is an antimetabolite drug used in treatment of cancer and autoimmune diseases. It acts by inhibiting the metabolism of folic acid via the inhibition of dihydrofolate reductase and blocks DNA synthesis in rapidly proliferate cells. These actions include immunosuppression.
CTX was applied once weekly in a dose of […] i.p. MTX was applied 3 times a week p.o. at 35 μg/mouse.
Also, body weight changes were recorded weekly and at the end of experiment both kidneys were preserved, one for possible conventional histology and one for immune complex detection (ICD) in glomeruli. Evaluation of ICD was performed by scoring and by image analysis.
80 animals were involved in the study.

[2] = system: MRL/lpr lupus mouse model; assay: Non-GLP in vivo evaluation of laquinimod in the MRL/lpr lupus mouse model; settings: for kidney glomerulonephritis (histopathology) / salivary gland inflammation (histopathological scoring): laquinimod 5 mg/kg, vs vehicle; for kidney glomerulonephritis (histopathology): MMF 100 mg/kg p.o.; for salivary gland inflammation (histopathological scoring): MMF 100 mg/kg
Experimental: This study evaluates the efficacy of laquinimod in the MRL/lpr lupus mouse model.
Animals were monitored until their urine proteinuria reached >200 mg/dL at which time they were enrolled in the study.
Proteinuria, ankle and paw diameters, dsDNA autoantibody levels and survival were monitored during in life portion of the study. At termination, blood samples were harvested for determination of dsDNA autoantibody levels, spleens were harvested and weighed then processed to isolate splenocytes which were counted. Kidney, lung, skin, lymph node, salivary gland and joints were harvested, processed for histological examination and scored by a histopathologist blind to the treatments.

(NZBxNZW)F1 mice [3] = assay: Survival dose response study of laquinimod in the (NZBxNZW)F1 model for SLE, 37 weeks; format: in vivo, mouse
Experimental: The positive control used was Cytoxan.
CTX was administered intraperitonealy once weekly, (200 μl/mouse). Blood samples were collected on Weeks 1, 5, 15 and 37. Serum samples were prepared for detection of anti-dsDNA antibodies. After 37 weeks (257 days) of treatment, mice were sacrificed.

[4] = system: active lupus nephritis patients; assay: Phase IIa clinical trial of laquinimod in combination with standard of care (MMF and steroids) in active lupus nephritis; format: in vivo, human
From the text: Approximately 45 Systemic Lupus Erythematosus patients with active lupus nephritis (LN) are enrolled. [ISN/RPS 2003 classification of lupus nephritis—classes III (A or A/C), IV-S or IV-G (A or A/C), or class V—pure or in combination with class III or IV].
The overall study duration is up to 32 weeks, with the screening phase being up to 4 weeks, the treatment period being 24 weeks and the follow-up period being 4 weeks for all subjects who complete the 24-week treatment period or subjects who prematurely discontinue treatment prior to Week 24 visit.
Placebo arm—2 capsules of placebo. Mycophenolate Mofetil (MMF)
MMF tablets 500 mg. All treatment arms receive MMF at baseline and throughout the study to a target dose of 2 g/day.
Subjects are assessed for study eligibility up to 4 weeks prior to baseline. Eligible subjects are initially randomized in a 1:1 ratio into one of the following two treatment arms: • 1.
Upon approval, randomization into one of the following three treatment arms occurs in a ratio that allows for reaching an overall target enrollment of approximately 15 subjects per treatment arm. Drop-outs are not replaced. • 1.
In addition, all receive IV methylprednisolone 500 mg/day for 3 days followed by 40 mg/day oral prednisolone/prednisone, which is tapered to not more than 10 mg/day by the end of Week 20, on a fixed steroid tapering regimen).
Any of the following results in early termination from the study: • 1. Increase in serum creatinine without improvement in proteinuria from 8 weeks onward (confirmed by repeated measurement within 2 weeks), defined as: • a. Serum creatinine >1.3 mg/dL that is at least 25% higher than the baseline value; and • b. […] Doubling of protein to creatinine ratio compared to baseline and protein to creatinine ratio >3 from Week 8 onwards (confirmed by repeated measurement within 2 weeks. At least one of the measurements should be a 24 hours urine collection). Outcome Measures Response Definitions • 1. Complete response (CR)—protein to creatinine ratio <0.5 and [decreased serum creatinine by at least 25% compared to baseline or serum creatinine <1.3 mg/dL]. • 2. […] BILAG renal response is defined as change from renal A or B at baseline to C or D. • 4. BILAG Substantial Responder (SR) is defined as all systems at last observed value (LOV) are C or D/E providing at least one system is A or B at baseline. Clinical Effect Outcome Measure Renal—System 1. Proportion of Subjects with Complete or Partial Response at Week 24 and the Lack of Treatment Failure

(NZBxNZW)F1 mice [5] = assay: Confirmation of efficacy of laquinimod in the (NZBxNZW)F1 model for SLE, 13 weeks; format: in vivo, mouse
Experimental: CTX was administered intraperitonealy once weekly, (200 μl/mouse). Blood samples were collected on Weeks 1, 5, and 11. Serum samples were prepared for detection of anti-dsDNA antibodies. After 13 weeks of treatment, mice were sacrificed and immune complex deposits in their kidneys were evaluated.

[6] = in vivo; cited from earlier work
[7] = daily oral 0.5 mg or 1 mg laquinimod with standard of care (MMF and steroids)
[8] = daily oral 0.5 mg or 1 mg laquinimod with standard of care, during the study period

For O=P1(N(CCCl)CCCl)NCCCO1 (stereo not drawn) [CTX, cyclophosphamide], the “proteinuria (PU)” value ((NZBxNZW)F1 mice [1]) was “significantly diminished” and the “immune complex deposition (ICD) in kidney” value ((NZBxNZW)F1 mice [1]) was “significantly inhibited”.
With COc1c(C)c2c(c(O)c1C/C=C(\C)CCC(=O)OCCN1CCOCC1)C(=O)OC2 [MMF, 2-morpholinoethyl (E)-6-(1,3-dihydro-4-hydroxy-6-methoxy-7-methyl-3-oxo-5-isogenzofuranyl)-4-methyl-4-hexenoate, reference compound] the “lung BALT hyperplasia (histopathology)” value ([2]; MMF 100 mg/kg p.o. vs vehicle) was “significant difference”, the “kidney glomerulonephritis (histopathology)” value [2] was “significant reductions” and the “salivary gland inflammation (histopathological scoring)” value [2] was “significant reduction”.
In the case of CN(Cc1cnc2nc(N)nc(N)c2n1)c1ccc(C(=O)N[C@@H](CCC(=O)O)C(=O)O)cc1 [MTX, methotrexate], the “animals died during the treatment period” value ((NZBxNZW)F1 mice [1]; 12 weeks treatment, 80 animals in the study) is reported as 2 and the “symptoms (proteinuria and immune complex deposition in kidney)” value ((NZBxNZW)F1 mice [1]; MTX 35 μg/mouse p.o. 3 times a week, 12 weeks) is reported as “failed to inhibit”.
For CCN(C(=O)c1c(O)c2c(Cl)cccc2n(C)c1=O)c1ccccc1 [laquinimod], the “proteinuria (PU)” value ((NZBxNZW)F1 mice [1]) was “significantly diminished”, the “immune complex deposition (ICD) in kidney” value ((NZBxNZW)F1 mice [1]) was “significantly inhibited” and the progression of proteinuria ((NZBxNZW)F1 mice [3]; all doses of laquinimod (0.2, 1, 5, 25 mg/kg p.o. 5 days a week), vs vehicle) was “abrogated the progression of proteinuria”. The survival ((NZBxNZW)F1 mice [3]; all doses of laquinimod, 37 weeks) was “significant prolongation of survival”, the “proteinuria, compared with positive control CTX” value ((NZBxNZW)F1 mice [3]; laquinimod doses of 1, 5 and 25 mg/kg) was “as effective as the positive control cyclophosphamide (CTX)” and the proteinuria ((NZBxNZW)F1 mice [3]; laquinimod lowest dose (printed 0.2 mg/ml), compared to the higher doses) was “abrogated proteinuria but not to the same extent”. The anti-dsDNA levels ((NZBxNZW)F1 mice [3]; serum, Weeks 1, 5, 15 and 37) was “dose dependent reduction in antibody levels over time”, the “effect of the combination of laquinimod, MMF and steroids on active lupus nephritis” value ([4]; 0.5 mg and 1.0 mg laquinimod daily with MMF and steroids) was “significantly more than the additive effect of each agent alone” and the “complete response (CR)” value [4, 7] was “results in a complete response”. The “partial response (PR)” value [4, 7] was “results in a partial response”, the proteinuria [4, 7] was “reduces proteinuria” and the tolerability and toxicity [4, 7] was “well tolerated and has no toxicity”. For the same molecule, the “treatment of active lupus nephritis” value [4, 7] was “effective to treat active lupus nephritis”, the urinary sediments [4, 7] was “eliminates urinary sediments” and the “decrease of glomerular filtration rate (GFR) as compared to baseline” value [4, 8] was “no more than 10%”. The “glomerular filtration rate (GFR) reached” value [4, 8] was “greater than 70 ml/min/1.73 m^2”, the “increase of glomerular filtration rate (GFR) as compared to baseline” value [4, 8] was “at least 25%” and the anti-dsDNA levels ((NZBxNZW)F1 mice [5]; laquinimod 5 mg/kg) was “behaved similarly to the positive control CTX”. The immune complex deposits ((NZBxNZW)F1 mice [5]; laquinimod 5 mg/kg) was “behaved similarly to the positive control CTX”, the “disease progression as measured by proteinuria” value ((NZBxNZW)F1 mice [5]; laquinimod 0.2 and 5 mg/kg p.o. 5 days a week, 13 weeks) was “abrogated disease progression” and the “ICD (immune complex deposits)” value ((NZBxNZW)F1 mice [5]; laquinimod low dose 0.2 mg/kg) was “did not inhibit”. For the same molecule, the “anti-dsDNA Ab titers” value ((NZBxNZW)F1 mice [5]; laquinimod low dose 0.2 mg/kg) was “did not inhibit”, the proteinuria ((NZBxNZW)F1 mice [5]; laquinimod low dose 0.2 mg/kg) was “prevented increased proteinuria” and the “bone resorption (joint histopathology)” value ([2]; both doses of laquinimod (1 and 5 mg/kg) vs vehicle) was “Significant reductions”. For the same molecule, the “salivary gland inflammation score, higher vs lower dose” value ([2]; laquinimod 5 mg/kg compared with 1 mg/kg) was “significantly lower score”, the “cartilage damage (joint histopathology)” value ([2]; laquinimod 5 mg/kg vs vehicle) was “significant reduction” and the “joint inflammation (histopathology)” value ([2]; laquinimod 5 mg/kg vs vehicle) was “significantly reduced”. For the same molecule, the “splenocytes as percent of total spleen cells” value ([2]; laquinimod 5 mg/kg vs vehicle) was “significant reduction”, the “kidney glomerulonephritis (histopathology)” value [2] was “significant reductions” and the “salivary gland inflammation (histopathological scoring)” value [2] was “significant reduction”. For the same molecule, the “measures during the in life phase (proteinuria, ankle and paw diameters, dsDNA autoantibody levels, survival)” value ([2]; laquinimod 1 or 5 mg/kg p.o., trends not significant except sporadic time points) was “trend toward dose dependent efficacy” and the oral bioavailability [6] was “high”.
